Reference: PMC5826917, “A small molecule inhibitor of Nicotinamide N-methyltransferase for the treatment of metabolic disorders” (Scientific Reports, 2018)

Assays:
[1] = system: endogenous NNMT activity in U2OS cells; test: Cell based U2OS assay (MNA levels by LC-MS/MS); settings: Homo sapiens, 24 h treatment
Protocol: (§1) PE-Sciex API-4000 triple quadrupole (PerkinElmerSciex Instruments, Boston, MA) mass spectrometer was employed for this analysis. […] Detection of the ions was performed in the multiple reaction monitoring (MRM) mode, monitoring the transition of the m/z 137 precursor ion to the m/z 92 product ion for MNA and m/z 141 precursor ion to the m/z 84 product ion for d4-MNA (internal standard).
(§2) The supernatant was separated and transferred to pre-labeled HPLC vials and analyzed by LC-MS/MS system.

[2] = system: wild-type and NNMT knockout mice on HFD
Text: NNMT fl/fl mice on a C57BL/6 background were generated by Regeneron Pharmaceuticals (Tarrytown, NY) using VelociGene® technology. A loxP locus was placed 1.6 kb upstream of the transcription starting site encompassing the gene promoter. A loxP-Frt-Hyg-Frt cassette was inserted 212 bp downstream of NNMT exon 1. The floxed coordinates were chr9:48,412,881–48,414,698. NNMT fl/fl mice were crossed with ZP3-cre mice (C57BL/6, Jackson Laboratories) to generate whole-body NNMT knockout mice. The DIO mouse study was conducted in accordance to the German Animal Protection Law, as well as according to international animal welfare legislation and rules. Female wild-type and NNMT knockout animals were put on high-fat diet (Ssniff HFD adjusted TD.97366) for 18 weeks and then treated with either JBSNF-000088 (50 mg/kg bid by oral gavage) or vehicle for four weeks (n = 9–10 per group). Throughout the study, Mice were housed in an environmentally controlled room at 23 °C on a 12 h:12 h light dark cycle (light on at 06:00 AM), and food and water was offered ad libitum. An oral glucose tolerance test was performed on day 25 of treatment: Animals were fasted overnight. 60 minutes before an oral glucose bolus (2 g kg^−1), JBSNF-000088 (50 mg kg^−1) or vehicle (0.5% HEC + 0.5% Tween80) was administered by oral gavage. For blood glucose analysis, blood was collected from the tail of conscious mice at time points 15, 30, 60 and 120 minutes after the glucose bolus.

[3] = system: Ca2+ Channel (L-Type DHP Site); test: Selectivity panel: Ca2+ channel; format: binding; settings: 10 µM
[4] = target: Serotonin Receptor 1A (5HT1A) (Homo sapiens, UniProt P08908); test: Selectivity panel: 5HT1A; format: cell-based
Protocol: (§3) Supplement 41598_2018_22081_MOESM1_ESM.docx, table 2: Supplementary table 2: Selectivity profile of JBSNF-000088 (at 10 µM) vs a panel of 34 receptors, channels and enzymes. | column: E% (agonistic); I% (antagonistic or inhibitory)

[5] = target: cGMP-inhibited 3,5-cyclic phosphodiesterase A (PDEA3) (Homo sapiens, UniProt Q14432); test: Selectivity panel: PDEA3; format: biochemical; settings: read-out: I% (antagonistic or inhibitory), PDEA3
[6] = target: T1, human NNMT (hNNMT) (Homo sapiens, UniProt P40261); test: Fluorescence based NNMT enzymatic assay (human); settings: fluorescence based biochemical assay
T1 construct: The full length NNMT proteins (1–264 amino acids) of human & mouse; 6 × His tag (N); TEV cleavage site (ENLYFQG) (N); made in house; host or cells: E. coli Rosetta2(DE3)pLysS
Protocol: (§4) NNMT activity was measured with the fluorescence enzymatic assay[22],[23]. MNA formed in the NNMT reaction reacts with acetophenone in the presence of KOH and formic acid and forms a fluorescent product 2, 7- naphthyridine. JBSNF-000088 was screened using human, mouse and monkey NNMT enzymes. Different concentrations of inhibitors were preincubated along with the enzyme for 30 minutes at room temperature. Reaction was initiated by addition of SAM and nicotinamide mixture (7 µM, 20 µM, 8 µM SAM and 6 µM, 20 µM, 9 µM nicotinamide for human, mouse and monkey NNMT assays respectively) for 60 minutes at 37 °C. The final assay reaction mixture contained a buffer of 100 mM Tris Hcl pH 7.5, 0.04% BSA, 2 mM dithiothreitol and 1% DMSO. At the end of the incubation, the reaction was stopped by the addition of ethanol: acetophenone mix (75% ethanol: 25% acetophenone) and 5 M potassium hydroxide prepared with 50% ethanol. The reaction was incubated for 15 minutes following which 100 µL of 60% formic acid was added. […] The fluorescent product 2, 7- naphthyridine was measured using a Tecan reader with excitation at 375 nm and emission at 430 nm. The IC50 values were determined by fitting the inhibition curves (percent inhibition versus inhibitor concentration) using a four parametric sigmoidal dose response using GraphPad Prism software.

[7] = target: T2, mouse NNMT (mNNMT) (Mus musculus, UniProt O55239); test: Fluorescence based NNMT enzymatic assay (mouse); settings: fluorescence based biochemical assay
T2 construct: The full length NNMT proteins (1–264 amino acids) of human & mouse; 6 × His tag (N); TEV cleavage site (ENLYFQG) (N); made in house; host or cells: E. coli Rosetta2(DE3)pLysS
Protocol: as §4

[8] = target: NaV1.5 (Homo sapiens, UniProt Q14524); test: NaV1.5 assay; settings: tested at 30 µM, result printed @ 10 µM; data not shown
[9] = physchem; settings: aqueous buffer
[10] = system: Glycine Receptor (strychnine-sensitive); test: Selectivity panel: glycine receptor; format: binding; settings: 10 µM
[11] = target: T3, NNMT (Homo sapiens, UniProt P40261); test: biochemical; set-up: The full length NNMT proteins (1–264 amino acids) of human & mouse; 6 × His tag (N); TEV cleavage site (ENLYFQG) (N); made in house; host or cells: E. coli Rosetta2(DE3)pLysS
T3 sequence (P40261 1-264): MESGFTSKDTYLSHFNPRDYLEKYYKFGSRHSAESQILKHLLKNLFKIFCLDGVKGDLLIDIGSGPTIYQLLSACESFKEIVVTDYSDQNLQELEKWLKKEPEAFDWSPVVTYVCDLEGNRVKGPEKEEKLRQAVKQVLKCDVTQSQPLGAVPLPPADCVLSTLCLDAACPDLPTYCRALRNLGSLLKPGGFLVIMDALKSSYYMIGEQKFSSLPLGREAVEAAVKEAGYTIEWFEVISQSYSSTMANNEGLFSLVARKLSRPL
Protocol: as §1, §2
The final assay reaction mixture contained a buffer of 100 mM Tris Hcl pH 7.5, 0.04% BSA, 2 mM dithiothreitol and 1% DMSO.

[12] = target: Cannabinoid Receptor 2 (CB2) (Homo sapiens, UniProt P34972); test: Selectivity panel: CB2; format: cell-based
Protocol: as §3

Chain of Cannabinoid Receptor 2 (CB2) (P34972 whole entry): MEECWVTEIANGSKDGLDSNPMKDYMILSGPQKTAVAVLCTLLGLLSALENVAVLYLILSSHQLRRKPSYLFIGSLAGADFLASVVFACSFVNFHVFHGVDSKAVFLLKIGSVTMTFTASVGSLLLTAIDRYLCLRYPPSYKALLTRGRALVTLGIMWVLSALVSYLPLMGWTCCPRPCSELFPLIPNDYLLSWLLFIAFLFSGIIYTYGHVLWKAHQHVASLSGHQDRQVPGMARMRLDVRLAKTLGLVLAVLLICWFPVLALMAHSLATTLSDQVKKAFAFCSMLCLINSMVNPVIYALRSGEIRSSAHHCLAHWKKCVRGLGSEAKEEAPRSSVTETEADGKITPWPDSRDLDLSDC
Chain of Serotonin Receptor 1A (5HT1A) (P08908 whole entry): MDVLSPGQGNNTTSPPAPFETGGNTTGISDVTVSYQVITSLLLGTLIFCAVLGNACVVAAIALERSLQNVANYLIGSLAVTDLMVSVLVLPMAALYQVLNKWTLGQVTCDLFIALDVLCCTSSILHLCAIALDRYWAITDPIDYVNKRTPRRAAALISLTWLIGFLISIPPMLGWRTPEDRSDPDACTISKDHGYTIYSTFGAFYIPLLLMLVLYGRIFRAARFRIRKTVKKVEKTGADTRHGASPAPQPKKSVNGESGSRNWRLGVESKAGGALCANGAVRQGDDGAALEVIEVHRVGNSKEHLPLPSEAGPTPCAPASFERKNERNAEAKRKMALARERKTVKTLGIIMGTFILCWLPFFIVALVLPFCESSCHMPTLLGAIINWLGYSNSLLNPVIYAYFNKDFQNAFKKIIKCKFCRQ
T2 sequence (O55239 whole entry, the tested form may be a part): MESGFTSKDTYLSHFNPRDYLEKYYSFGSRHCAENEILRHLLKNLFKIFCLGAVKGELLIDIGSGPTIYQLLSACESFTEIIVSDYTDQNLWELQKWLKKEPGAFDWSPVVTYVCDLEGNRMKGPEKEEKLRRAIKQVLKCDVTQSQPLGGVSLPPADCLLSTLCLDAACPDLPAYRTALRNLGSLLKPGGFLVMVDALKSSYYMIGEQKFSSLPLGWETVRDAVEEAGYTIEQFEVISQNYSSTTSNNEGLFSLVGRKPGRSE
Chain of NaV1.5 (Q14524 whole entry): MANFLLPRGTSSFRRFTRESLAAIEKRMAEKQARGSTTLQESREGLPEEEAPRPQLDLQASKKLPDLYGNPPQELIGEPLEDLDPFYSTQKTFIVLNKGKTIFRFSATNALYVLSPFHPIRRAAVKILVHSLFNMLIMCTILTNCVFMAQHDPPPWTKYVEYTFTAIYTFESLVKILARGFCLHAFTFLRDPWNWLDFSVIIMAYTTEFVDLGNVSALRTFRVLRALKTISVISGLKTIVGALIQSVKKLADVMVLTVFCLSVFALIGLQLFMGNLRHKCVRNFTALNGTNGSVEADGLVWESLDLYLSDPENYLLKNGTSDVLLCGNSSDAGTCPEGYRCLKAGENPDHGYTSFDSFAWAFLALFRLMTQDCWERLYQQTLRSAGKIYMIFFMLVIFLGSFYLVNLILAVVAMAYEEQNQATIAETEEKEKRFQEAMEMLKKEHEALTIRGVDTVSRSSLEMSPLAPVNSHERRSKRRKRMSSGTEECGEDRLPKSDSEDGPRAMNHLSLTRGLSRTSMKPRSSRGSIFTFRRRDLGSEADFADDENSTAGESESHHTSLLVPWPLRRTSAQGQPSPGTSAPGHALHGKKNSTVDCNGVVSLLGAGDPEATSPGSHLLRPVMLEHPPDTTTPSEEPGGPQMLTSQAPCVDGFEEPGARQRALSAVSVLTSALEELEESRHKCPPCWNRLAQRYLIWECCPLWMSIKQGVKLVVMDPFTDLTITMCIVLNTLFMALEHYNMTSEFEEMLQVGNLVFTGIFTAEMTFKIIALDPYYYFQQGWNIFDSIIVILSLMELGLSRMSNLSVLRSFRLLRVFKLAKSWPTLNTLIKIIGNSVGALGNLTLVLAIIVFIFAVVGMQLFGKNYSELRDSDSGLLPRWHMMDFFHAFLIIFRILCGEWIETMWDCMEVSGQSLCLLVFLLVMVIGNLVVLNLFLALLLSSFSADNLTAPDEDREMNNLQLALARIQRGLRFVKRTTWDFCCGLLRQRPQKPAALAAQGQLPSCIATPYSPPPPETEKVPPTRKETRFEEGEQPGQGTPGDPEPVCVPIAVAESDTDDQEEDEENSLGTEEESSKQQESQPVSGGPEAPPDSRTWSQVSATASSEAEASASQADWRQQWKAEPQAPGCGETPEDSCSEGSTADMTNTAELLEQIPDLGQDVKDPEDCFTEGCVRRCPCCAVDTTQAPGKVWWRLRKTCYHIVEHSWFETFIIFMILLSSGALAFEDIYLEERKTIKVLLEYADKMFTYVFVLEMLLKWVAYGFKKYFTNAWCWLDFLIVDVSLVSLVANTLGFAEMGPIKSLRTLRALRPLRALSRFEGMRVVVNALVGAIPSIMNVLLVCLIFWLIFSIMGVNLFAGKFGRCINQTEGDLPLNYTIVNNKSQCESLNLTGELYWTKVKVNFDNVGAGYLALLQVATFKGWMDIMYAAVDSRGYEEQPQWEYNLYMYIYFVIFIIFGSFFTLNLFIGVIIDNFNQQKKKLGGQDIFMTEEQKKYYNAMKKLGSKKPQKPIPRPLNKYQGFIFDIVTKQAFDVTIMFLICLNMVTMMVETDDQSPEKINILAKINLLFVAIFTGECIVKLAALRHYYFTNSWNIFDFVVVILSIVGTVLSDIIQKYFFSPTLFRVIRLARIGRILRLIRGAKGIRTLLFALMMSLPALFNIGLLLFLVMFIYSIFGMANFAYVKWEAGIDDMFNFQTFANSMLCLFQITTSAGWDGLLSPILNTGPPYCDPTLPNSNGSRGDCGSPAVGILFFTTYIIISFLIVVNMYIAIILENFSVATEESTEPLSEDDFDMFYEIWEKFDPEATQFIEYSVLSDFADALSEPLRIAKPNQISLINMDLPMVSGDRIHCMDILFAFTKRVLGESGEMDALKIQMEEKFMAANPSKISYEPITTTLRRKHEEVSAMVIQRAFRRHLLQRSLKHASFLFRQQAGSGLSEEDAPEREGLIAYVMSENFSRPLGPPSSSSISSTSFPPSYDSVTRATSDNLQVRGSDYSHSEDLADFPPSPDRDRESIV
Chain of cGMP-inhibited 3,5-cyclic phosphodiesterase A (PDEA3) (Q14432 whole entry): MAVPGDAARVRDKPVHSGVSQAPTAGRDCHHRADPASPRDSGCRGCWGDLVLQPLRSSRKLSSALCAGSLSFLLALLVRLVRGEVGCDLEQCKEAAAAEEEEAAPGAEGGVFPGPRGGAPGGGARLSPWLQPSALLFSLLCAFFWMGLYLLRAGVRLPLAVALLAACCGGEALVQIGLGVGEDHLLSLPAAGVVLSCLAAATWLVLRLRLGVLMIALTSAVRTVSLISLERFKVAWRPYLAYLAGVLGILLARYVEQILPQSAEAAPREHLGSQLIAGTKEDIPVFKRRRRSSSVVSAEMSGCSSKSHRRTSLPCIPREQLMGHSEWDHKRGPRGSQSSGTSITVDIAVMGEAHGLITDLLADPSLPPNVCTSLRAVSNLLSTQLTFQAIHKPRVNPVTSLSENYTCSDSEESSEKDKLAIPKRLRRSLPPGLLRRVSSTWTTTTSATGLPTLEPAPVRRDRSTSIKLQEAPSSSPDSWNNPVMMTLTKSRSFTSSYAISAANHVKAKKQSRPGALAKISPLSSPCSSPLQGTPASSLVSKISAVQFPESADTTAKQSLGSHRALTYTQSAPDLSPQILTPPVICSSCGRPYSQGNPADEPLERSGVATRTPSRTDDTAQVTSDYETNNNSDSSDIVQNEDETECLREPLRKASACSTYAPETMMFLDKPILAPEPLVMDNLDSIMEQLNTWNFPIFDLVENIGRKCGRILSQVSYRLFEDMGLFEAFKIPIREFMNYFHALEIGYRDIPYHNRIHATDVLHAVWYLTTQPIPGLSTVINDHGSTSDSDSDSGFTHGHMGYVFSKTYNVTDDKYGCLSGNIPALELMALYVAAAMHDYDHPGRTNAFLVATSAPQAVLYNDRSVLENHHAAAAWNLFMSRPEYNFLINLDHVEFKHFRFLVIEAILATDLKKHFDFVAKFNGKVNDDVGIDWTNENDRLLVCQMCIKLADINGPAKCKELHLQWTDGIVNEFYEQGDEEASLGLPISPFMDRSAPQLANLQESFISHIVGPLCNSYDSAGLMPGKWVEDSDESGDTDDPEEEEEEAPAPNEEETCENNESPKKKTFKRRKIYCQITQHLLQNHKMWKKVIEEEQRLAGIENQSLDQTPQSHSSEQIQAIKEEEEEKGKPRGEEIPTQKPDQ

## COc1ccc(C(N)=O)cn1 [JBSNF-000088, 6-methoxynicotinamide]
[1]
  IC50: 1600 nM
[2]; NNMT knockout mice, vs vehicle-treated knockout
  insulin level or glucose-handling in NNMT knockout mice: no differences in insulin level or glucose-handling
[2]; after 28 days, vehicle vs JBSNF-000088, wild-type or knockout
  Fed glucose levels: not different
[2]; treated wild-type mice vs vehicle treated
  glucose tolerance: improvement in glucose tolerance
[2]; wild-type animals, one hour after last administration, 28-day treatment
  plasma MNA: significant reduction in plasma MNA
[2]; wild-type mice, four weeks, not statistically significant
  fed insulin levels: trend to reduced insulin levels
[2]; wild-type or knockout animals, four weeks
  food intake: no change in food intake
[3]
  I% (antagonistic or inhibitory), Ca2+ Channel (L-Type DHP Site): 0%
[4]; 10 µM
  E% (agonistic), 5HT1A: 5%
[4]; read-out: I% (antagonistic or inhibitory), 5HT1A
  inhibition at 10 µM: -13%
[5]
  inhibition at 10 µM: -1%
[6]
  IC50: 1800 nM
[7]
  IC50: 5000 nM
[8]
  NaV1.5 inhibition: < 30%
[9]
  solubility: > 200 µM
[10]
  I% (antagonistic or inhibitory), Glycine Receptor (strychnine-sensitive): -7%
[11]
  IC50: 2400 nM
[12]; 10 µM
  E% (agonistic), CB2: -7%
[12]; read-out: I% (antagonistic or inhibitory), CB2
  inhibition at 10 µM: 1%
